Patent US10668067B2, “Pyridine sulfonamides” (AMGEN INC., priority 2016, dated 2020)
pIC50: −log10 of the molar value.

What follows are compounds tested against human Nav1.7 (Homo sapiens (Human), UniProt Q15858) (assay: Nav 1.7 In Vitro PX Assay (PatchXpress whole cell voltage clamp)). Settings: in-vitro Nav 1.7 PX data.
Format: cell-based
How it was run: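 Partially inactivated channels (20–50% inactivation at holding potential) probed by 20 ms pulses to −10 mV repeated at 0.1 Hz, in stable human Nav1.7 HEK293 cells.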

Chain of human Nav1.7 (Q15858 whole entry): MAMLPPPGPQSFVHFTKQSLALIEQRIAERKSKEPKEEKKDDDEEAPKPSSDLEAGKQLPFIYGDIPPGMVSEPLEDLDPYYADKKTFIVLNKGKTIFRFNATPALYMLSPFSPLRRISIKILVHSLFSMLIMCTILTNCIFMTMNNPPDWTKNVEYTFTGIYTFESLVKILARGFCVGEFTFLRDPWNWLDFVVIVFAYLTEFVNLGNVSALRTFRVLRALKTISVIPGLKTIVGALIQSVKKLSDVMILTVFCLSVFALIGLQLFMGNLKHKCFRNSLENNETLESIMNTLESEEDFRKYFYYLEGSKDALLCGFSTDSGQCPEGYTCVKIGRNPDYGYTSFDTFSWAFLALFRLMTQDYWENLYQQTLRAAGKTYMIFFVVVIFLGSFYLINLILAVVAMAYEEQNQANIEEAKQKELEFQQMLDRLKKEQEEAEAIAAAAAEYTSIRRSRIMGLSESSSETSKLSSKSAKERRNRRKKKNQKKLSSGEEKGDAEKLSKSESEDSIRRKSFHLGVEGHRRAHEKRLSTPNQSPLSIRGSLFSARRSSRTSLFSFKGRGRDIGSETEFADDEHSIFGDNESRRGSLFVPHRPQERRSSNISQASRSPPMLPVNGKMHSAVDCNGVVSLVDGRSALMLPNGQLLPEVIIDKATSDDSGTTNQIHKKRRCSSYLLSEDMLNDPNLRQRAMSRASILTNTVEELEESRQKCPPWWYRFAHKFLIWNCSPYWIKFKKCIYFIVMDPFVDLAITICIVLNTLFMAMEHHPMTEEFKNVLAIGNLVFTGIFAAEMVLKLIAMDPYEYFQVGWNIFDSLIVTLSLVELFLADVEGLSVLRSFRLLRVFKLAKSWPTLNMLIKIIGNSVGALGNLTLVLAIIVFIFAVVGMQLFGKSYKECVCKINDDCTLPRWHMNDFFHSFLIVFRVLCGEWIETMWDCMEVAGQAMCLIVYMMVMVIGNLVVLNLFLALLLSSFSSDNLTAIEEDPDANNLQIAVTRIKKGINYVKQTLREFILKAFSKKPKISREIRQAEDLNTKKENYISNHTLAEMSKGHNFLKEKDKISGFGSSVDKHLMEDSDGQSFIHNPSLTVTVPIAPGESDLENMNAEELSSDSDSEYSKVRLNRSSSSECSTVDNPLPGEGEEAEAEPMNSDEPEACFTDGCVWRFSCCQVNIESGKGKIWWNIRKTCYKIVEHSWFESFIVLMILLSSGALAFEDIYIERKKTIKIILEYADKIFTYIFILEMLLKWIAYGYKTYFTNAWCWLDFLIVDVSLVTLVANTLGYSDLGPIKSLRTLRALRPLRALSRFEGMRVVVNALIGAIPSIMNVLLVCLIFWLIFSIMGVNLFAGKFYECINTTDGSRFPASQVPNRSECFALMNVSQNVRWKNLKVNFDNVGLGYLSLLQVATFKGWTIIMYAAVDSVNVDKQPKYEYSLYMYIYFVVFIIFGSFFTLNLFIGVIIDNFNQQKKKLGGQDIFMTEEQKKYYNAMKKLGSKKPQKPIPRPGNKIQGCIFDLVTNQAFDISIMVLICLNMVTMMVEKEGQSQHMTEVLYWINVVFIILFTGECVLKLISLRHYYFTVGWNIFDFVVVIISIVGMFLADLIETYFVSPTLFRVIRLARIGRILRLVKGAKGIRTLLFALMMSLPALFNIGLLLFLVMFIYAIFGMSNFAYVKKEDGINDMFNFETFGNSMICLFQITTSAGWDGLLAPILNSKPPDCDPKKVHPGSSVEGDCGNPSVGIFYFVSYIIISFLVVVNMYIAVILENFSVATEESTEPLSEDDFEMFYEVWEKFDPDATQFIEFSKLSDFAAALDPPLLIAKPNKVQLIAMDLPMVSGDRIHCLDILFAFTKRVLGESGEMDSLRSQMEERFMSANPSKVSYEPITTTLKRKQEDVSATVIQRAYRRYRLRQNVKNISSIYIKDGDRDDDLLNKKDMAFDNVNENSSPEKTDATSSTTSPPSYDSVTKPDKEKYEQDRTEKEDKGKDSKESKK

SMILES	pIC50
CNC(=O)N(c1ccc(S(=O)(=O)Nc2ccncn2)cn1)c1cc(Cl)c(-c2ccc(F)c(C(F)(F)F)c2)cc1OC [Example 3-12, 6-((2-chloro-4′-fluoro-5-methoxy-3′-(trifluoromethyl)-4-biphenylyl)(methylcarbamoyl)amino)-N-4-pyrimidinyl-3-pyridinesulfonamide]	7.62
CNC(=O)N(c1ccc(S(=O)(=O)Nc2cccnn2)cn1)c1cc(F)c(-c2ccc(F)c(OC(F)(F)F)c2)cc1OC [Example 3-13, 6-((2,4′-difluoro-5-methoxy-3′-(trifluoromethoxy)-4-biphenylyl)(methylcarbamoyl)amino)-N-3-pyridazinyl-3-pyridinesulfonamide]	8.15
CNC(=O)N(c1ccc(S(=O)(=O)Nc2ncco2)cn1)c1cc(F)c(-c2ccc(F)c(OC(F)(F)F)c2)cc1OC [Example 3-14, 6-((2,4′-difluoro-5-methoxy-3′-(trifluoromethoxy)-4-biphenylyl)(methylcarbamoyl)amino)-N-1,3-oxazol-2-yl-3-pyridinesulfonamide]	7.77
CNC(=O)N(c1ccc(S(=O)(=O)Nc2ccon2)cn1)c1cc(-c2cc(Cl)cc(OC)c2)ccc1OC [Example 4-1, 6-((3′-chloro-4,5′-dimethoxy-3-biphenylyl)(methylcarbamoyl)amino)-N-3-isoxazolyl-3-pyridinesulfonamide]	6.34
COc1cc(-c2cc(Cl)cc(C#N)c2)c(Cl)cc1N(C(N)=O)c1ccc(S(=O)(=O)Nc2ccon2)cn1 [Example 5-3, 6-(carbamoyl(2,3′-dichloro-5′-cyano-5-methoxy-4-biphenylyl)amino)-N-3-isoxazolyl-3-pyridinesulfonamide]	7.51
COc1cc(-c2cc(OC)c(N(C(N)=O)c3ccc(S(=O)(=O)Nc4ccon4)cn3)cc2Cl)cc(C(F)(F)F)c1 [Example 5-4, 6-(carbamoyl(2-chloro-3′,5-dimethoxy-5′-(trifluoromethyl)-4-biphenylyl)amino)-N-3-isoxazolyl-3-pyridinesulfonamide]	8.15
COc1cc(-c2cccc(OCC(F)(F)F)c2)c(Cl)cc1N(C(N)=O)c1ccc(S(=O)(=O)Nc2ccon2)cn1 [Example 5-5, 6-(carbamoyl(2-chloro-5-methoxy-3′-(2,2,2-trifluoroethoxy)-4-biphenylyl)amino)-N-3-isoxazolyl-3-pyridinesulfonamide]	7.80
CNC(=O)N(c1ccc(S(=O)(=O)Nc2ccon2)cn1)c1cc(Cl)c(C#CC2CCCC2)cc1OC [Example 7, 6-((5-chloro-4-(cyclopentylethynyl)-2-methoxyphenyl)(methylcarbamoyl)amino)-N-3-isoxazolyl-3-pyridinesulfonamide]	7.17
CNC(=O)N(c1ccc(S(=O)(=O)Nc2ccon2)cn1)c1cc(F)c(CCC(F)(F)F)cc1OC [Example 8, 6-((5-fluoro-2-methoxy-4-(3,3,3-trifluoropropyl)phenyl)(methylcarbamoyl)amino)-N-3-isoxazolyl-3-pyridinesulfonamide]	6.07
CNC(=O)N(c1ccc(S(=O)(=O)Nc2ccon2)cc1)c1ccc(-c2ccc(Cl)c(C)c2)cc1OC [Example 9, 4-(1-(4′-chloro-3-methoxy-3′-methyl-[1,1′-biphenyl]-4-yl)-3methylureido)-N-(isoxazol-3-yl)benzenesulfonamide]	6.40
CNC(=O)N(c1ccc(S(=O)(=O)Nc2ccon2)cc1)c1cc(F)c(-c2ccc(F)c(OC(F)(F)F)c2)cc1OC [Example 10, 4-(1-(2,4′-difluoro-5-methoxy-3′-(trifluoromethoxy)-[1,1′-biphenyl]-4-yl)-3-methylureido)-N-(isoxazol-3-yl)benzenesulfonamide]	6.68

More lines, now with the values ahead:

pIC50	SMILES
6.73	CNC(=O)N(c1ccc(S(=O)(=O)Nc2ccon2)cn1)c1cc(-c2cccc(C(F)(F)F)c2)ccc1OC [Example 4-2, N-3-isoxazolyl-6-((4-methoxy-3′-(trifluoromethyl)-3-biphenylyl)(methylcarbamoyl)amino)-3-pyridinesulfonamide]
5.62	CNC(=O)N(c1ccc(S(=O)(=O)Nc2ccon2)cn1)c1cc(-c2cccc(F)c2)ccc1OC [Example 4-3, 6-((3′-fluoro-4-methoxy-3-biphenylyl)(methylcarbamoyl)amino)-N-3-isoxazolyl-3-pyridinesulfonamide]
6.76	CNC(=O)N(c1ccc(S(=O)(=O)Nc2ccon2)cn1)c1cc(-c2cc(F)cc(Cl)c2)ccc1OC [Example 4-4, 6-((3′-chloro-5′-fluoro-4-methoxy-3-biphenylyl)(methylcarbamoyl)amino)-N-3-isoxazolyl-3-pyridinesulfonamide]
6.35	CNC(=O)N(c1ccc(S(=O)(=O)Nc2ccon2)cn1)c1cc(-c2ccc(C)c(Cl)c2)ccc1OC [Example 4-5, 6-((3′-chloro-4-methoxy-4′-methyl-3-biphenylyl)(methylcarbamoyl)amino)-N-3-isoxazolyl-3-pyridinesulfonamide]
7.05	CNC(=O)N(c1ccc(S(=O)(=O)Nc2ccon2)cn1)c1cc(-c2cccc(C(F)(F)F)c2)c(Cl)cc1OC [Example 4-6, 6-((6-chloro-4-methoxy-3′-(trifluoromethyl)-3-biphenylyl)(methylcarbamoyl)amino)-N-3-isoxazolyl-3-pyridinesulfonamide]
6.05	CNC(=O)N(c1ccc(S(=O)(=O)Nc2ccon2)cn1)c1cc(-c2cccc(F)c2)c(Cl)cc1OC [Example 4-7, 6-((6-chloro-3′-fluoro-4-methoxy-3-biphenylyl)(methylcarbamoyl)amino)-N-3-isoxazolyl-3-pyridinesulfonamide]
7.09	CNC(=O)N(c1ccc(S(=O)(=O)Nc2ccon2)cn1)c1cc(-c2cc(Cl)cc(OC)c2)c(Cl)cc1OC [Example 4-8, 6-((3′,6-dichloro-4,5′-dimethoxy-3-biphenylyl)(methylcarbamoyl)amino)-N-3-isoxazolyl-3-pyridinesulfonamide]
7.12	CNC(=O)N(c1ccc(S(=O)(=O)Nc2ccon2)cn1)c1cc(-c2ccc(C)c(Cl)c2)c(Cl)cc1OC [Example 4-9, 6-((3′,6-dichloro-4-methoxy-4′-methyl-3-biphenylyl)(methylcarbamoyl)amino)-N-3-isoxazolyl-3-pyridinesulfonamide]
8.15	COc1cc(-c2cccc(C(F)(F)F)c2)c(Cl)cc1N(C(N)=O)c1ccc(S(=O)(=O)Nc2ccon2)cn1 [Example 5-1, 6-(1-(2-chloro-5-methoxy-3′-(trifluoromethyl)-[1,1′-biphenyl]-4-yl)ureido)-N-(isoxazol-3-yl)pyridine-3-sulfonamide]
8.00	COc1cc(-c2ccc(Cl)c(F)c2)c(Cl)cc1N(C(N)=O)c1ccc(S(=O)(=O)Nc2ccon2)cn1 [Example 5-2, 6-(carbamoyl(2,4′-dichloro-3′-fluoro-5-methoxy-4-biphenylyl)amino)-N-3-isoxazolyl-3-pyridinesulfonamide]
6.78	COC(=O)N(c1ccc(S(=O)(=O)Nc2ccon2)cn1)c1cc(Cl)c(-c2cccc(C(F)(F)F)c2)cc1OC [Example 6, Methyl (2-chloro-5-methoxy-3′-(trifluoromethyl)-[1,1′-biphenyl]-4-yl)(5-(N-(isoxazol-3-yl)sulfamoyl)pyridine-2-yl)carbamate]
